From patent US20210163552A1, “PEPTIDE FOR INDUCING REGENERATION OF TISSUE, AND USE THEREOF” (SHIONOGI & CO., LTD., priority 2017, published 2021)
Where no end group is shown, it is not given here.

Columns and labels:
[1] = Stability of peptides in plasma (Example 6); type: in vitro ADME; conditions: rat plasma on ice, assay concentration 5 μg/mL; for stability in rat plasma compared to 2-44 / stability in rat plasma, Peptide-3 and Peptide-6 compared with each other: 30 and 60 minutes (FIG. 3)
Experimental: A 5 mL tube previously charged with 60 μL of a 10% EDTA-2K was charged with 3 mL of whole blood collected from Crl: CD (SD) rats, and the contents were allowed to stand at room temperature for 30 minutes, and then centrifuged at 4° C. and at 3,000 rpm (1600×g) for 10 minutes. The supernatant was collected to be used as a blank plasma. The plasma obtained was stored on ice and only used on the day of the stability test.
Each of the peptide at position 2 to position 44 of human HMGB1 (2-44), the modified peptide prepared in Example 1 (Peptide-3), and the modified peptide prepared in Example 4 (Peptide-6) was prepared into a solution at 375 μg/mL with distilled water from a stock solution in which each peptide was dissolved in a 0.1% aqueous TFA solution at 1 mg/mL. Eight microliters of the solution was added to 592 μL of the blank plasma to prepare a sample for the stability test (assay concentration: 5 μg/mL). The sample for stability test was allowed to stand on ice, and 50 μL was collected immediately after the addition, and 30 and 60 minutes after the addition. To 50 μL of the collected sample were added 250 μL of 270 mmol/L citric acid solution/130 mmol/L EDTA-2K aqueous solution (4:1, v/v), and 50 μL of a 0.1% aqueous TFA solution, and mixed. To the mixture was added 350 μL of methanol and mixed, and further 100 μL of acetonitrile was added thereto and mixed, and the mixture was once frozen with dry ice. After 5 to 60 minutes, the frozen sample was thawed at room temperature, and the supernatant obtained by centrifugation at 4° C. and at 14,000×g for 3 minutes was collected in an amount of 400 μL, dried and solidified with a centrifugal concentrator (Spin Dryer Light VC-36R, manufactured by TAITEC CORPORATION), and dissolved in 200 μL of a 1% TFA/2% ACN Buffer, and filtrated with a filter (0.22 μm) to obtain samples for the measurement.
The samples for the measurement were introduced into high-performance liquid chromatograph-single quadrupolar mass spectrometer to detect the monitor ions peculiar to each of the peptides. From separately prepared samples of which concentrations were known, a calibration curve was drawn in a concentration range of from 0.1 to 10 μg/mL, and an inverse regression was obtained from peak areas of chromatograms obtained by measurements of each sample to obtain a peptide concentration in the samples. For the peptide concentration at each time point, a remaining rate (%) which was calculated by defining one immediately after the addition as 100 was plotted against the time after the addition (FIG. 3).

[2] = system: murine bone marrow-derived stromal cell line ST2; assay: Measurements of cell-migration activity (Example 2); type: cell-based; set-up: key: five levels of scores (−, ±, +, ++, +++); five levels of scores (−, ±, +, ++, +++); five levels of scores (−, ±, +, ++, +++); five levels of scores (−, ±, +, ++, +++); five levels of scores (−, ±, +, ++, +++); conditions: ST2 cells, peptide at 10 μM, cultured overnight, score from photographed images
Experimental: Cells of murine bone marrow-derived stromal cell line ST2 (RCB0224, RIKEN BioResource Research Center) were removed from a dish using TrypLE Express (Thermo Fisher Scientific), and collected by centrifugation at 25° C. and 1,500 rpm for 5 minutes. The cell pellets were prepared into a concentration of 7×10^5 cells/mL with RPMI 1640/10% FBS/1% PenStrep (Gibco), and seeded at 70 μL/insert well on a 24-well plate set with a culture insert (Nippon Genetics Co., Ltd.). After 24 hours, the culture insert was taken out, and the cells were washed once with RPMI 1640. Each of the peptide samples (a peptide of position 2 to position 44 of human HMGB1 (2-44), and the five kinds of modified peptides Peptide-1 to -5 prepared in Example 1), each prepared at 10 μM with an assay medium (RPMI 1640/0.1% FBS) was added in an amount of 550 μL, and the cells were further cultured overnight. As a negative control (NC), only the assay medium was added. After the culture, the cells were fixed, stained with DiffQuik, and photographed. The degree of cell migration of each group from the photographed images was evaluated with five levels of scores (−, ±, +, ++, +++). In addition, each of the peptide samples was subjected to three test runs under the same conditions.

peptide concentration in the stability test sample (quantifiable lower limit) ([1]; 30 minutes after the addition) [µg/mL] | stability in rat plasma compared to 2-44 [1] | stability in rat plasma, Peptide-3 and Peptide-6 compared with each other [1] | Sequence | degree of cell migration, 1st Run [2] | degree of cell migration, 2nd Run [2] | degree of cell migration, 3rd Run [2]
≤ 0.5 |  |  | GKGDPKKPRGKMSSYAFFVQTCREEHKKKHPDASVNFSEFSKK [Peptide 2-44, GKGDPKKPR GKMSSYAFFVQTCREEHKKKHPDASVNFSEFSKK, reference compound] |  |  | 
 | stable as compared to 2-44 | of the same level | GKGDPKKPRGKMSSYAFFVQTCREEHKKKHPDASVNFSEFSPP [Peptide-6, GKGDPKKPR GKMSSYAFFVQTCREEHKKKHPDASVNFSEFSPP] |  |  | 
 |  |  | MGKGDPKKPRGKMSSYAFFVQTCREEHKKKHPDASVNFSEFSKA (MGKGDPKKPRGKMSSYAFFVQTCREEHKKKHPDASVNFSEFSKA) [Peptide-4] | ++ | + | +++
 |  |  | MGKGDPKKPRGKMSSYAFFVQTCREEHKKKHPDASVNFSEFSKE (MGKGDPKKPRGKMSSYAFFVQTCREEHKKKHPDASVNFSEFSKE) [Peptide-5] | ++ | ++ | ++
 |  |  | MGKGDPKKPRGKMSSYAFFVQTCREEHKKKHPDASVNFSEFSKP (MGKGDPKKPRGKMSSYAFFVQTCREEHKKKHPDASVNFSEFSKP) [Peptide-1] | +++ | + | +++
 |  |  | MGKGDPKKPRGKMSSYAFFVQTCREEHKKKHPDASVNFSEFSPK (MGKGDPKKPRGKMSSYAFFVQTCREEHKKKHPDASVNFSEFSPK) [Peptide-2] | +++ | ++ | +++
 | stable as compared to 2-44 | of the same level | MGKGDPKKPRGKMSSYAFFVQTCREEHKKKHPDASVNFSEFSPP [Peptide-3, MGKGDPKKPRGKMSSYAFFVQTCREEHKKKHPDASVNFSEFSPP] |  |  | 
